The term IC50 denotes the concentration needed to halve the response being measured.

The results in this text go back to US20250144094A1 (Erasca, Inc., priority 2021, published 2025).

This test addresses Recombinant human ULK1 (1-649) (Homo sapiens (Human), UniProt O75385). The experiment in a line: ULK1 ADP Glo kinase activity assay (MBP substrate). Conditions: 25° C., 40 minutes, read-out: ULK1 biochemical IC50. The method, then:
Recombinant human ULK1 (1-649) protein expressed in Sf9 insect cells was obtained from SignalChem (Vancouver, BC), catalog #U01-11G. Active kinase was purified via N-terminal GST tag to >85% purity.
ADP GLO Kinase Assay Reagents were obtained from Promega Corp (Madison, WI), catalog #V9104.
MBP (myelin basic protein) substrate, bovine, purified, was obtained from Sigma (St. Louis, MO), catalog #M1891.
ULK1 inhibitor potency was determined using the luminescent ADP Glo Kinase Assay (Promega), a universal ADP detection system that measures kinase activity by quantifying the amount of ADP produced during a kinase reaction. ULK1 kinase reactions are performed in a standard 96-well microplate (20 uL reaction volume) at 25° C. for 40 minutes in the presence or absence of the test compound (12-point dilution series starting at 10 uM). Addition of MBP substrate and ATP initiates the kinase reaction.
The standard ADP Glo assay is performed in two steps. In step one, following the kinase reaction, an equal volume of ADP-Glo™ Reagent (20 uL) is added to terminate the kinase reaction and deplete the remaining ATP. In the second step, the Kinase Detection Reagent (10 uL) is added to simultaneously convert ADP to ATP and allow the newly synthesized ATP to be measured using a luciferase/luciferin reaction. Step two of the ADP Glo assay is performed in a white 384-well plate (20 uL final volume). Thirty minutes after the addition of the Detection reagent, light generated from the luciferase reaction is measured (1 second exposure) using a microplate compatible luminometer (CLARIOstar, BMG Labtech).
Inhibition of ULK1 kinase activity is determined for each test compound by comparison to DMSO only control wells. Inhibitor IC50 was calculated by plotting the change in luminescence after 30 minutes (response) versus inhibitor concentration (in log molar) then applying the four-parameter variable slope curve fit (GraphPad Prism). Inhibition of ULK1 in biochemical assay is found in Table 3.

Structures are written as SMILES.

Sequence of Recombinant human ULK1 (1-649) (O75385 1-649): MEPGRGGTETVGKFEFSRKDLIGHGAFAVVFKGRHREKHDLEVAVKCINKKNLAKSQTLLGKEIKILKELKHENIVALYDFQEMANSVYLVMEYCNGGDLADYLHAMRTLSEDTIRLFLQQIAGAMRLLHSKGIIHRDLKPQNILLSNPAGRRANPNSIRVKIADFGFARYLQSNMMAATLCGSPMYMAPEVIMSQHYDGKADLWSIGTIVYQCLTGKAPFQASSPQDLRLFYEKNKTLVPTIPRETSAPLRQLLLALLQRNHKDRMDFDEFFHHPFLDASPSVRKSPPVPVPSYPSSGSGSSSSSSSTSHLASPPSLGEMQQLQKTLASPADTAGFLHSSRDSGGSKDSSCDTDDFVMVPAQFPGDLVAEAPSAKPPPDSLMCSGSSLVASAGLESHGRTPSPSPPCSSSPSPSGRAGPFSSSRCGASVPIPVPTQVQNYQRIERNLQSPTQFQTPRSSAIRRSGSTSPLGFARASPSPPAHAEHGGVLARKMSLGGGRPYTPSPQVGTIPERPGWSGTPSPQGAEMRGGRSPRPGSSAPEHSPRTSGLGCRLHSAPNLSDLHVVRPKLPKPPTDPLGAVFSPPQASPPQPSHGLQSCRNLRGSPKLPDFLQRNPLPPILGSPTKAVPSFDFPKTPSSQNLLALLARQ

In the case of `O=C1NCCCc2sc(-c3nc(Nc4cc5c(cc4Cl)CNCC5)ncc3C(F)(F)F)cc21` [Example 28, 2-(2-((7-Chloro-1,2,3,4-tetrahydroisoquinolin-6-yl)amino)-5-(trifluoromethyl)pyrimidin-4-yl)-5,6,7,8-tetrahydro-4H-thieno[3,2-c]azepin-4-one], the IC50 was not above 10 nM.
For `O=C1NCCc2sc(-c3nc(Nc4cc5c(cc4C4CC4)CNCC5)ncc3C(F)(F)F)cc21` [Example 29, 2-(2-((7-Cyclopropyl-1,2,3,4-tetrahydroisoquinolin-6-yl)amino)-5-(trifluoromethyl)pyrimidin-4-yl)-6,7-dihydrothieno[3,2-c]pyridin-4(5H)-one], the IC50 is not above 10 nM.
As to `Cn1ccc2sc(-c3nc(Nc4cc5c(cc4Cl)CNCC5)ncc3C(F)(F)F)cc2c1=O` [Example 30, 2-(2-((7-Chloro-1,2,3,4-tetrahydroisoquinolin-6-yl)amino)-5-(trifluoromethyl)pyrimidin-4-yl)-5-methylthieno[3,2-c]pyridin-4(5H)-one], the IC50 is not above 10 nM.
Then `Cn1ncc2sc(-c3nc(Nc4cc5c(cc4Cl)CNCC5)ncc3C(F)(F)F)cc2c1=O` [Example 31, 2-(2-((7-Chloro-1,2,3,4-tetrahydroisoquinolin-6-yl)amino)-5-(trifluoromethyl)pyrimidin-4-yl)-5-methylthieno[2,3-d]pyridazin-4(5H)-one], with not above 10 nM; and `CS(=O)(=O)c1csc(-c2nc(Nc3cc4c(cc3Cl)CNCC4)ncc2C(F)(F)F)c1` [Example 32, 7-Chloro-N-(4-(4-(methylsulfonyl)thiophen-2-yl)-5-(trifluoromethyl)pyrimidin-2-yl)-1,2,3,4-tetrahydroisoquinolin-6-amine], with not above 10 nM; and `O=C1NCCc2sc(-c3nc(Nc4cc5c(cc4Cl)CNC5)ncc3C(F)(F)F)cc21` [Example 33, 2-(2-((6-Chloroisoindolin-5-yl)amino)-5-(trifluoromethyl)pyrimidin-4-yl)-6,7-dihydrothieno[3,2-c]pyridin-4(5H)-one], with not above 10 nM.
As for `CCc1cc2c(cc1Nc1ncc(C(F)(F)F)c(-c3cc4c(s3)CCNC4=O)n1)CCNC2` [Example 34, 2-(2-((7-ethyl-1,2,3,4-tetrahydroisoquinolin-6-yl)amino)-5-(trifluoromethyl)pyrimidin-4-yl)-6,7-dihydrothieno[3,2-c]pyridin-4(5H)-one], the IC50 was not above 10 nM.
For the molecule `CSc1cc2c(cc1Nc1ncc(C(F)(F)F)c(-c3cc4c(s3)CCNC4=O)n1)CCNC2` [Example 35, 2-(2-((7-(Methylthio)-1,2,3,4-tetrahydroisoquinolin-6-yl)amino)-5-(trifluoromethyl)pyrimidin-4-yl)-6,7-dihydrothieno[3,2-c]pyridin-4(5H)-one], the IC50 is not above 10 nM.
With `CN1CCN(c2ccc(Nc3ncc(C(F)(F)F)c(-c4cc5c(s4)CCNC5=O)n3)c(C3CC3)c2)CC1` [Example 36, 2-(2-((2-Cyclopropyl-4-(4-methylpiperazin-1-yl)phenyl)amino)-5-(trifluoromethyl)pyrimidin-4-yl)-6,7-dihydrothieno[3,2-c]pyridin-4(5H)-one], the IC50 is not above 10 nM.
As to `CCc1cc(N2CCN(C)CC2)ccc1Nc1ncc(C(F)(F)F)c(-c2cc(C(N)=O)cs2)n1` [Example 37, 5-(2-((2-Ethyl-4-(4-methylpiperazin-1-yl)phenyl)amino)-5-(trifluoromethyl)pyrimidin-4-yl)thiophene-3-carboxamide], the IC50 is not above 10 nM.
Turning to `CP(C)(=O)c1csc(-c2nc(Nc3cc4c(cc3Cl)CNCC4)ncc2C(F)(F)F)c1` [Example 38, (5-(2-((7-Chloro-1,2,3,4-tetrahydroisoquinolin-6-yl)amino)-5-(trifluoromethyl)pyrimidin-4-yl)thiophen-3-yl)dimethylphosphine oxide], the IC50 is 10 to 50 nM.
`CCc1cc(N2CCN(C)CC2)ccc1Nc1ncc(C(F)(F)F)c(-c2cc3c(s2)CCNC3=O)n1` [Example 39, 2-(2-((2-ethyl-4-(4-methylpiperazin-1-yl)phenyl)amino)-5-(trifluoromethyl)pyrimidin-4-yl)-6,7-dihydrothieno[3,2-c]pyridin-4(5H)-one]: the IC50 was not above 10 nM.
Then `CC1(C)NC(=O)c2cc(-c3nc(Nc4cc5c(cc4Cl)CNCC5)ncc3C(F)(F)F)sc21` [Example 40, 2-(2-((7-chloro-1,2,3,4-tetrahydroisoquinolin-6-yl)amino)-5-(trifluoromethyl)pyrimidin-4-yl)-6,6-dimethyl-5,6-dihydro-4H-thieno[2,3-c]pyrrol-4-one], with not above 10 nM; and `COCCN1CCCc2sc(-c3nc(Nc4cc5c(cc4Cl)CNCC5)ncc3C(F)(F)F)cc2C1=O` [Example 41, 2-(2-((7-chloro-1,2,3,4-tetrahydroisoquinolin-6-yl)amino)-5-(trifluoromethyl)pyrimidin-4-yl)-5-(2-methoxyethyl)-5,6,7,8-tetrahydro-4H-thieno[3,2-c]azepin-4-one], with 10 to 50 nM.
As for `CN1C(=O)c2cc(-c3nc(Nc4cc5c(cc4Cl)CNCC5)ncc3C(F)(F)F)sc2C1(C)C` [Example 42, 2-(2-((7-chloro-1,2,3,4-tetrahydroisoquinolin-6-yl)amino)-5-(trifluoromethyl)pyrimidin-4-yl)-5,6,6-trimethyl-5,6-dihydro-4H-thieno[2,3-c]pyrrol-4-one], the IC50 is not above 10 nM.
Under `O=C1NCCc2sc(-c3nc(Nc4cc5c(cc4F)CNCC5)ncc3C(F)(F)F)cc21` [Example 43, 2-(2-((7-fluoro-1,2,3,4-tetrahydroisoquinolin-6-yl)amino)-5-(trifluoromethyl)pyrimidin-4-yl)-6,7-dihydrothieno[3,2-c]pyridin-4(5H)-one] stands not above 10 nM.
For `CS(=O)(=O)N1CCc2sc(-c3nc(Nc4cc5c(cc4Cl)CNCC5)ncc3C(F)(F)F)cc2C1=O` [Example 44, 2-(2-((7-chloro-1,2,3,4-tetrahydroisoquinolin-6-yl)amino)-5-(trifluoromethyl)pyrimidin-4-yl)-5-(methylsulfonyl)-6,7-dihydrothieno[3,2-c]pyridin-4(5H)-one], the IC50 is not above 10 nM.
Take `Cc1sc(-c2nc(Nc3cc4c(cc3Cl)CNCC4)ncc2C(F)(F)F)cc1C(N)=O` [Example 45, 5-(2-((7-chloro-1,2,3,4-tetrahydroisoquinolin-6-yl)amino)-5-(trifluoromethyl)pyrimidin-4-yl)-2-methylthiophene-3-carboxamide]: the IC50 is not above 10 nM.
Consider `O=C1NCCCc2sc(-c3nc(Nc4cc5c(cc4Cl)CCNC5)ncc3C(F)(F)F)cc21` [Example 46, 2-(2-((6-chloro-1,2,3,4-tetrahydroisoquinolin-7-yl)amino)-5-(trifluoromethyl)pyrimidin-4-yl)-5,6,7,8-tetrahydro-4H-thieno[3,2-c]azepin-4-one], for which the IC50 is not above 10 nM.
On to `CN1CCCc2sc(-c3nc(Nc4cc5c(cc4Cl)CNCC5)ncc3C(F)(F)F)cc2C1=O` [Example 47, 2-(2-((7-chloro-1,2,3,4-tetrahydroisoquinolin-6-yl)amino)-5-(trifluoromethyl)pyrimidin-4-yl)-5-methyl-5,6,7,8-tetrahydro-4H-thieno[3,2-c]azepin-4-one], for which the IC50 is not above 10 nM.
`CN1CCC(n2cc(Nc3ncc(C(F)(F)F)c(-c4cc5c(s4)CCNC5=O)n3)c(C3CC3)n2)CC1` [Example 48, 2-(2-((3-cyclopropyl-1-(1-methylpiperidin-4-yl)-1H-pyrazol-4-yl)amino)-5-(trifluoromethyl)pyrimidin-4-yl)-6,7-dihydrothieno[3,2-c]pyridin-4(5H)-one]: the IC50 was not above 10 nM.
For the molecule `CN1CCc2cc(Cl)c(Nc3ncc(C(F)(F)F)c(-c4cc5c(s4)CCCNC5=O)n3)cc2C1` [Example 49, 2-(2-((6-chloro-2-methyl-1,2,3,4-tetrahydroisoquinolin-7-yl)amino)-5-(trifluoromethyl)pyrimidin-4-yl)-5,6,7,8-tetrahydro-4H-thieno[3,2-c]azepin-4-one], the IC50 was not above 10 nM.
For the molecule `Cc1nc(=O)c2cc(-c3nc(Nc4cc5c(cc4Cl)CNCC5)ncc3C(F)(F)F)sc2[nH]1` [Example 50, 6-(2-((7-chloro-1,2,3,4-tetrahydroisoquinolin-6-yl)amino)-5-(trifluoromethyl)pyrimidin-4-yl)-2-methylthieno[2,3-d]pyrimidin-4(1H)-one], the IC50 is more than 500 nM.
On to `CCS(=O)(=O)c1csc(-c2nc(Nc3cc4c(cc3Cl)CNCC4)ncc2C(F)(F)F)c1` [Example 51, 7-chloro-N-(4-(4-(ethylsulfonyl)thiophen-2-yl)-5-(trifluoromethyl)pyrimidin-2-yl)-1,2,3,4-tetrahydroisoquinolin-6-amine], for which the IC50 is not above 10 nM.
On to `COCCS(=O)(=O)c1csc(-c2nc(Nc3cc4c(cc3Cl)CNCC4)ncc2C(F)(F)F)c1` [Example 52, 7-chloro-N-(4-(4-((2-methoxyethyl)sulfonyl)thiophen-2-yl)-5-(trifluoromethyl)pyrimidin-2-yl)-1,2,3,4-tetrahydroisoquinolin-6-amine], for which the IC50 was not above 10 nM.
